In ChEMBL document CHEMBL4428091, “Design and optimization of (3-aryl-1H-indazol-6-yl)spiro[cyclopropane-1,3'-indolin]-2'-ones as potent PLK4 inhibitors with oral antitumor efficacy” (Bioorg Med Chem Lett, 2016):

What was measured:
HCC1954 = test: Growth inhibition of human HCC1954; type: functional
[1] = Dissociation constant, pKa of the compound; type: physicochemical
[2] = Lipophilicity, log D of the compound at pH 7.4; type: physicochemical; conditions: buffer
[3] = biological target: T1, Serine/threonine-protein kinase PLK4 (Homo sapiens, UniProt O00444); test: Inhibition of PLK4 (unknown origin)
T1 sequence (O00444 whole entry): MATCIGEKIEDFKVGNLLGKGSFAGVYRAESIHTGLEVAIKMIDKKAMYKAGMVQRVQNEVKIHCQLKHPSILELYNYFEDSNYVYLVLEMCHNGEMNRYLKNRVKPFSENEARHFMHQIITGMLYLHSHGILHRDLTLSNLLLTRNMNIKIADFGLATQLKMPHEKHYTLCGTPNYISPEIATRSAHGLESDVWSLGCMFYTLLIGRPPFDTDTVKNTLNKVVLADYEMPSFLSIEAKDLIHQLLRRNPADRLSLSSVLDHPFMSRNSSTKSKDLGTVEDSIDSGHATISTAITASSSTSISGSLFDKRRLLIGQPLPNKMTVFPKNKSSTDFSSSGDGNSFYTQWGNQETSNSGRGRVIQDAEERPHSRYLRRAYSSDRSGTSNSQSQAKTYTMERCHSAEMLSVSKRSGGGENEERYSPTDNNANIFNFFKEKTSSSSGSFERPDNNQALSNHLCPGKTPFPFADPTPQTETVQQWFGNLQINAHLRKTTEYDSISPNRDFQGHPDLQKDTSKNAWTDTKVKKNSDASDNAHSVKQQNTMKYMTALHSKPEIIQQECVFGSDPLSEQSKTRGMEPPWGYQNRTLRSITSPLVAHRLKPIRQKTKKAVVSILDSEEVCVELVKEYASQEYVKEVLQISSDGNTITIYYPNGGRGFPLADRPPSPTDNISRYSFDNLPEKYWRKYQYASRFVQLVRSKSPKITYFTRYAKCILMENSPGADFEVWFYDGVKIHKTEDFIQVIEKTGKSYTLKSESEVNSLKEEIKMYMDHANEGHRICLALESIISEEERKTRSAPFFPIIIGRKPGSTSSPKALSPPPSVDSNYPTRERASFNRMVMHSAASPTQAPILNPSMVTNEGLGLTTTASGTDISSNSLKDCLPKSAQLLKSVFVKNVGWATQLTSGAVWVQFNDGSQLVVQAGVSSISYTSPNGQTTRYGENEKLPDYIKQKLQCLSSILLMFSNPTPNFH

[4] = biological target: T2, Receptor-type tyrosine-protein kinase FLT3 (Homo sapiens, UniProt P36888); test: Inhibition of FLT3 (unknown origin)
T2 sequence (P36888 whole entry): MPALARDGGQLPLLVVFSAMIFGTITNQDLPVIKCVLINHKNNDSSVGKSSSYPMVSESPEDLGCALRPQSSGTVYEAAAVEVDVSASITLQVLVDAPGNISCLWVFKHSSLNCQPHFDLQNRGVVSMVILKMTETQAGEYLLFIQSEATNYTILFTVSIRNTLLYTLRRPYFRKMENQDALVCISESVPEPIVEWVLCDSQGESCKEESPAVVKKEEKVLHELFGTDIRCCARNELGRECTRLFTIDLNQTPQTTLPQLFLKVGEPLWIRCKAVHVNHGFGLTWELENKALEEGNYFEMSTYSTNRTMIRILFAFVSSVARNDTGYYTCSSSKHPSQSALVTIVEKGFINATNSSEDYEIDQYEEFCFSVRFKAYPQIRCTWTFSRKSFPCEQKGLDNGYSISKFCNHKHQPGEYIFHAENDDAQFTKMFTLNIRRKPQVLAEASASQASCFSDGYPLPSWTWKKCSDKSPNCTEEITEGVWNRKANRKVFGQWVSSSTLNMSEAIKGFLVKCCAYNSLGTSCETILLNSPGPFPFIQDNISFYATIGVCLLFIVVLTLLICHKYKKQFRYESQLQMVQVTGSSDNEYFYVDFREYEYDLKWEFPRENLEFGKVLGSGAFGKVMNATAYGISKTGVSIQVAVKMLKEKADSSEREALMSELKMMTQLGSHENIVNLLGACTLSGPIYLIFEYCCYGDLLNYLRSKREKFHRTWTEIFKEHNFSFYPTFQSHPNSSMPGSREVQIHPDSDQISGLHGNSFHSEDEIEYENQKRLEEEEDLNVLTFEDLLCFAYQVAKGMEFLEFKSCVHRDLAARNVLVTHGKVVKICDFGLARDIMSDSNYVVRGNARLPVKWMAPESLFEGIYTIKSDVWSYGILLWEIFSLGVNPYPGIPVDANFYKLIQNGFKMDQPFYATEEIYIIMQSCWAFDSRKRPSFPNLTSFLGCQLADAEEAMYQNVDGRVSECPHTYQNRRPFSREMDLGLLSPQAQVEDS

MDA-MB-468 [5] = test: Growth inhibition of human MDA-MB-468 cells; type: functional
MCF7 = test: Growth inhibition of human MCF7; type: functional
CYP2C9 = CYP2C9 (Homo sapiens, UniProt P11712); test: Inhibition of CYP2C9 (unknown origin) at 1 uM; type: ADME
Aurora kinase A = biological target: T3, Aurora kinase A (Homo sapiens, UniProt O14965); test: Inhibition of AURKA (unknown origin)
T3 sequence (O14965 whole entry): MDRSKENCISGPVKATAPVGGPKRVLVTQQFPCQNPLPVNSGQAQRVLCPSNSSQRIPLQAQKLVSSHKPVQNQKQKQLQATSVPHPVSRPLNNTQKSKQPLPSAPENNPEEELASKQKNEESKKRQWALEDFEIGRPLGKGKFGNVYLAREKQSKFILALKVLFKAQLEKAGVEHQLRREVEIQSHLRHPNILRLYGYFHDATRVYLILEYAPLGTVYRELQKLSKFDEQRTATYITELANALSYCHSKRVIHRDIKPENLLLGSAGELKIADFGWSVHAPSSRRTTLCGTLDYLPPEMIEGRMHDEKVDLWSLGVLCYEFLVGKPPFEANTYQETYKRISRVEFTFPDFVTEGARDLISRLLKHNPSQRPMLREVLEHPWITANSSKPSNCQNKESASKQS

Aurora kinase B = Aurora kinase B (Homo sapiens, UniProt Q96GD4); test: Inhibition of AURKB (unknown origin)
CYP3A4 = CYP3A4 (Homo sapiens, UniProt P08684); test: Inhibition of CYP3A4 (unknown origin) at 1 uM; type: ADME
CYP2C19 = CYP2C19 (Homo sapiens, UniProt P33261); test: Inhibition of CYP2C19 (unknown origin) at 1 uM; type: ADME
[6] = AUC in mouse at 25 mg/kg, po; type: ADME, organism-based; conditions: in vivo
[7] = biological target: Vascular endothelial growth factor receptor 2 (Homo sapiens, UniProt P35968); test: Inhibition of KDR (unknown origin)
[8] = Cmax in mouse at 25 mg/kg, po; type: ADME, organism-based; parameters: dose 25 mg/kg, route oral; conditions: in vivo, read-out: Cmax
[9] = Half life in human microsomes; type: ADME, Microsome
[10] = Half life in mouse microsomes; type: ADME, Microsome
[11] = Oral bioavailability in rat at 5 mg/kg; type: ADME, organism-based; conditions: in vivo
[12] = AUC in rat at 1 mg/kg, iv; type: ADME, organism-based; conditions: in vivo
[13] = AUC in rat at 5 mg/kg, po; type: ADME, organism-based; conditions: in vivo, read-out: AUC
[14] = Toxicity in mouse xenografted with human MDA-MB-468 cells assessed as body weight loss at 37.5 mg/kg, po qd for 21 days measured during compound dosing relative to vehicle control; type: organism-based; conditions: in vivo, 504 h
MDA-MB-468 [15] = test: Antitumor activity against human MDA-MB-468 cells xenografted in mouse assessed as tumor growth inhibition at 37.5 mg/kg, po qd for 21 days measured on day 21 post last dose relative to vehicle control; type: functional; conditions: MDA-MB-468, po, 504 h, read-out: TGI
[16] = Half life in rat at 1 mg/kg, iv; type: ADME, organism-based; conditions: in vivo
[17] = Clearance in rat at 1 mg/kg, iv; type: ADME, organism-based; conditions: in vivo

Chain of Vascular endothelial growth factor receptor 2 (P35968 whole entry): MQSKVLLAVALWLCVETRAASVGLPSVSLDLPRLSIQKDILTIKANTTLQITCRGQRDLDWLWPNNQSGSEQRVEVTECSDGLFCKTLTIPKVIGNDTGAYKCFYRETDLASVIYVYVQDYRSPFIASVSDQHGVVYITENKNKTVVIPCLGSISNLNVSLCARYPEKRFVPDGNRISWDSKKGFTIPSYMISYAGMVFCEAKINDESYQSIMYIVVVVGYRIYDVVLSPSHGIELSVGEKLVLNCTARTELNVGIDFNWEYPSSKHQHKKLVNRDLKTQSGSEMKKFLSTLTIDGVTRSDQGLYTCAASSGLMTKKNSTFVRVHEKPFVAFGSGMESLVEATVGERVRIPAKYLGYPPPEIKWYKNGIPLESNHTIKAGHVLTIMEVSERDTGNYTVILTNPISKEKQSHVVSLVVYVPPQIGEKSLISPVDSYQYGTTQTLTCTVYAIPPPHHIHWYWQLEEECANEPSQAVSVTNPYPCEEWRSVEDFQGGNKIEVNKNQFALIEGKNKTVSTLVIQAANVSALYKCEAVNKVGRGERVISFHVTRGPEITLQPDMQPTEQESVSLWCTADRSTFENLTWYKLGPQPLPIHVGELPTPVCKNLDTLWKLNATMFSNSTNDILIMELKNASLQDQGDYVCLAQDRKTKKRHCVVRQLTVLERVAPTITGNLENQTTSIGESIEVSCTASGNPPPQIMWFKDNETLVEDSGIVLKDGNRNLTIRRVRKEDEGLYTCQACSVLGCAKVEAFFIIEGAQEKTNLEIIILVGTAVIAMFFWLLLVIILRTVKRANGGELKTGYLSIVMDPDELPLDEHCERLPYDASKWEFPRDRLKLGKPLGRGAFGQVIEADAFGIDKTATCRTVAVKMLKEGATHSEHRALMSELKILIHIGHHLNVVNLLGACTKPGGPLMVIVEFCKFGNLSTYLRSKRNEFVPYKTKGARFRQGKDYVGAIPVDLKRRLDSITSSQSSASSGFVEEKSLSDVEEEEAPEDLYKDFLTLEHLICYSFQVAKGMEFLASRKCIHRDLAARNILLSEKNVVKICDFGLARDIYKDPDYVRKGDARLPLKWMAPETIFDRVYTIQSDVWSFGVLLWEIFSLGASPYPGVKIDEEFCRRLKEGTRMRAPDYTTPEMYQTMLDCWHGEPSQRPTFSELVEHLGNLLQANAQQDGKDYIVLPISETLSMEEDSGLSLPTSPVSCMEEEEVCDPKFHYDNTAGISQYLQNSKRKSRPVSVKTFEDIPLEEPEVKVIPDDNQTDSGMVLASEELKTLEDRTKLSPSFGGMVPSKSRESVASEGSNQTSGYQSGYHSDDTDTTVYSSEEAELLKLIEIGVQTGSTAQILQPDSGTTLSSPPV
Chain of CYP3A4 (P08684 whole entry): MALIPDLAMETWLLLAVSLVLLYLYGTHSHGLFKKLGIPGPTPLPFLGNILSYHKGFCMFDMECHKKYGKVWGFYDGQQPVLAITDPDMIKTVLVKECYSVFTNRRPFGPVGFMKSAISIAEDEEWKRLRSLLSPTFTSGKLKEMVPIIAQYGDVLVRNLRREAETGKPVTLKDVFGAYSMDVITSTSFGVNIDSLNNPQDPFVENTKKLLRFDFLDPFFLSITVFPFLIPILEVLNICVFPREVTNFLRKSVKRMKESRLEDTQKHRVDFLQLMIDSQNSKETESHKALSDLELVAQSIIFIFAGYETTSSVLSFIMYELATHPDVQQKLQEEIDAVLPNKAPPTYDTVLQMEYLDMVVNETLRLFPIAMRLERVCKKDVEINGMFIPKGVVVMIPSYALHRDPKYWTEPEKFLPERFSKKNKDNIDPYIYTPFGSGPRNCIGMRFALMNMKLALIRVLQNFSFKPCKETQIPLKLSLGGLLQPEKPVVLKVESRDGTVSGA
Chain of Aurora kinase B (Q96GD4 whole entry): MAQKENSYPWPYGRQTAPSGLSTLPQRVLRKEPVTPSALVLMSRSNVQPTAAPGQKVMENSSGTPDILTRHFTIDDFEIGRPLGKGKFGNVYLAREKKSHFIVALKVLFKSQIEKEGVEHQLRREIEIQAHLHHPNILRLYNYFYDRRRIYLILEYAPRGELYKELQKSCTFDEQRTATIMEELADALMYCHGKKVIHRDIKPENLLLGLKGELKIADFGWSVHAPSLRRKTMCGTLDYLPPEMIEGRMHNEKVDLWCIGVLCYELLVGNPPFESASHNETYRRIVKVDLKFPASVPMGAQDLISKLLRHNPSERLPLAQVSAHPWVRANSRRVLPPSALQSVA
Chain of CYP2C19 (P33261 whole entry): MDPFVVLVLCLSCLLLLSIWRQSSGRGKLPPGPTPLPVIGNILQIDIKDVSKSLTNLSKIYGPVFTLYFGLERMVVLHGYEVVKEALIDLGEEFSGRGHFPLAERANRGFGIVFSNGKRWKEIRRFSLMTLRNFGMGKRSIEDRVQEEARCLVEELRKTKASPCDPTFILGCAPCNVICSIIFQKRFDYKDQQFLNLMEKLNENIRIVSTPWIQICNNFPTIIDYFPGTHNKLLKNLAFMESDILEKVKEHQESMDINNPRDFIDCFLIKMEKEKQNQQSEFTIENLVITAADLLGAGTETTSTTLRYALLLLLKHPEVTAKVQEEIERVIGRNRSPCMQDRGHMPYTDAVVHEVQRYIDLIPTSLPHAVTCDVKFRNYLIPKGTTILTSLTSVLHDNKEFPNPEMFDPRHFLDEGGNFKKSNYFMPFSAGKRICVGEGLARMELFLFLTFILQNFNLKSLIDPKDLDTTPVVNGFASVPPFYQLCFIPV
Chain of CYP2C9 (P11712 whole entry): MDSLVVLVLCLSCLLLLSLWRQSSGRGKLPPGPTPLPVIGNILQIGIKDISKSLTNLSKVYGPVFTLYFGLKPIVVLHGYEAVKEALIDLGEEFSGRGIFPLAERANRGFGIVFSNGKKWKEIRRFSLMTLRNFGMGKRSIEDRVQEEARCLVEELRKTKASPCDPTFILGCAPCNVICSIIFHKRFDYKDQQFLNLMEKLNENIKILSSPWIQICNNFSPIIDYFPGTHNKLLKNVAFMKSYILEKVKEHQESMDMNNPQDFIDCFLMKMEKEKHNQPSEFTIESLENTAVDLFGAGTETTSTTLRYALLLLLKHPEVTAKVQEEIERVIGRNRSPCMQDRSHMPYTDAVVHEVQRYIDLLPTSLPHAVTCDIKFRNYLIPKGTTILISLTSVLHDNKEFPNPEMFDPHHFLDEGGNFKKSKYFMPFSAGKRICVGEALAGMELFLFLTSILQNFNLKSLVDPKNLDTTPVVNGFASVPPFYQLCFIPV

Row | Structure (SMILES) | GI50 (HCC1954) | logD [2] | IC50 [3] | IC50 [4] | GI50 (MDA-MB-468 [5]) | GI50 (MCF7) | inhibition at 1 µM (CYP2C9) | IC50 (Aurora kinase A) | IC50 (Aurora kinase B) | inhibition at 1 µM (CYP3A4) | inhibition at 1 µM (CYP2C19) | AUC [6] | Cmax [8] | half-life [9] | half-life [10] | bioavailability [11] | AUC [12] | AUC [13] | half-life [16] | clearance [17] | further results
1 | COc1ccc2c(c1)[C@]1(C[C@H]1c1ccc3c(-c4ccc(C5(F)CCN(C)CC5)cc4)n[nH]c3c1)C(=O)N2 | 1420 nM | 4 | 1.5 nM | 200 nM | 220 nM | 150 nM |  |  |  |  |  |  |  |  |  |  |  |  |  |  | pKa [1]: 7.7
2 | COc1ccc2c(c1)[C@]1(C[C@H]1c1ccc3c(-c4ccc(N5C[C@@H](C)N[C@@H](C)C5)cc4)n[nH]c3c1)C(=O)N2 | 8800 nM | 3.4 | 1.2 nM | 230 nM | 5.8 nM | 30 nM | 44% | > 1000 nM | 13 nM | -3% | 54% | 170 ng·h/mL | 110 ng/mL | > 60 min | 43 min |  |  |  |  |  | IC50 [7]: > 5000 nM
3 | CCN1CCN(c2ccc(-c3n[nH]c4cc([C@@H]5C[C@@]56C(=O)Nc5ccc(OC)cc56)ccc34)cc2)CC1 | 240 nM | 4.8 | 1.6 nM | 62 nM | 31 nM | 6.3 nM | 37% | > 1000 nM | 8.5 nM | 6% | 60% | 3000 ng·h/mL | 1100 ng/mL | > 60 min | 15 min | 11% | 310 ng·h/mL | 310 ng·h/mL | 96 min | 55 mL/min/kg | Activity [14]: < 20%; inhibition in vivo at 37.5 mg/kg (MDA-MB-468 [15]): 48%
4 | COc1ccc2c(c1)[C@]1(C[C@H]1c1ccc3c(-c4ccc(N5CCN(C)CC5)cc4)n[nH]c3c1)C(=O)N2 | 1400 nM | 4 | 0.94 nM | 45 nM | 15 nM | 1 nM | 35% | > 1000 nM | 6.9 nM | 3% | 33% | 1830 ng·h/mL | 710 ng/mL | 19 min | 9 min | 22% | 270 ng·h/mL | 260 ng·h/mL | 78 min | 68.3 mL/min/kg | Activity [14]: < 20%; IC50 [7]: 9400 nM; inhibition in vivo at 37.5 mg/kg (MDA-MB-468 [15]): 96%
5 | COc1ccc2c(c1)[C@]1(C[C@H]1c1ccc3c(-c4ccc(N5CCN(CCO)CC5)cc4)n[nH]c3c1)C(=O)N2 | 3000 nM | 4 | 1.2 nM | 77 nM | 68 nM | 1700 nM | 41% | > 1000 nM | 7 nM | 11% | 28% | 270 ng·h/mL | 250 ng/mL | > 60 min | 28 min | 11% | 220 ng·h/mL | 130 ng·h/mL | 84 min | 76.7 mL/min/kg | 
6 | COc1ccc2c(c1)[C@]1(C[C@H]1c1ccc3c(-c4ccc(N5CCN(C)CC5)nc4)n[nH]c3c1)C(=O)N2 | 3300 nM | 3.3 | 0.69 nM | 97 nM |  | 100 nM | 34% | > 1000 nM | 10 nM | 6% | 30% | 140 ng·h/mL | 71 ng/mL | 20 min | 8 min | 10% | 270 ng·h/mL | 140 ng·h/mL | 96 min | 63.3 mL/min/kg | IC50 [7]: 14000 nM
